Measured values published in patent US20160282364A1, “ASSAY FOR INSULIN-DEGRADING ENZYME (IDE) INHIBITORS” (PRESIDENT AND FELLOWS OF HARVARD COLLEGE, priority 2013, published 2016).

What was measured:
DIO mice = test: Plasma hormone measurements and liver RT-PCR post-IPGTT; type: in vivo, mouse
Description: Trunk blood was obtained for plasma hormone measurements using the Multiplexed Mouse Metabolic Hormone panel (Milliplex, EMD Millipore) on a Luminex FlexMap 3D instrument. Gastric emptying was measured by dissection of stomachs 30 min after an oral glucose bolus (3.0 g/kg, 10 mL/kg) in sterile saline containing 0.1 mg/mL phenol red.
Total RNA was isolated from liver samples (˜100 mg) using TRIzol (Invitrogen) and purified using an RNeasy® kit (Qiagen) and on-column DNAse treatment (Qiagen). Reverse transcription was performed with oligo(dT) primers using SuperScript III (Life Technologies). RT-PCR was performed with two primer pairs per target normalized against tubulin and beta-actin transcripts (ΔΔCT method).
(§1) Blood collection and plasma hormone measurements. Blood was collected in EDTA-coated tubes (BD Microtainer®) from trunk bleeding (˜500 μL) after CO2-euthanasia for all hormone assays. The plasma was immediately separated from red blood cells by centrifugation 10 min at 1800 g, aliquoted, frozen over dry ice and stored at −80° C. […] Values are reported as mean±S.E.M. Statistics were performed using a two-tail Student's t-test, and significance levels shown in the figures are *p<0.05 versus vehicle control group or **p<0.01 versus vehicle control group.
RT-PCR analysis of liver gluconeogenesis markers phosphoenolpyruvate carboxykinase (PEPCK) and glucose-6-phosphatase (G6Pase). Total RNA was isolated from liver samples (˜100 mg) using TRIzol® reagent (Invitrogen, 1 mL/100 mg sample), followed by spin-column purification (RNeasy® kit, Qiagen) and on-column DNAse treatment (Qiagen) according to the manufacturer's instructions. RNA concentrations were determined by UV spectrophotometry (NanoDrop). One microgram of total RNA was used for reverse transcription with oligo(dT) primers (SuperScript® III First-Strand Synthesis SuperMix, Life Technologies) according to the manufacturer's instructions. Quantitative PCR reactions included 1 μL of cDNA diluted 1:100, 0.4 μM primers, 2× SYBR Green PCR Master Mix (Invitrogen) in 25 μL total volume, and were read out by a CFX96TM Real-Time PCR Detection System (BioRad). Transcript levels were determined using two known primer pairs^18,19 for each gene of interest (Table 6), which were normalized against tubulin and beta-actin transcripts (ΔΔCT method), and expressed relative to the lowest sample. Duplicate control assays without reverse transcriptase treatment were run for each RNA preparation and primer set used. Statistics were performed using a two-tail Student's t-test, and significance levels shown in the figures are *p<0.05 versus vehicle control group or **p<0.01 versus vehicle control group.

C57BL/6J mice = test: Insulin tolerance test, glucagon challenge and amylin challenge; type: in vivo, mouse
Description: Wild-type lean C57BL/6J and diet-induced obese (DIO) C57BL/6J age-matched male mice were purchased from Jackson Laboratories, and used at ages 14-16, and 24-26 weeks respectively (>20 weeks of high-fat diet for the DIO mice). GCGR^/ mice were bred from heterozygous mice and used between 11 and 17 weeks. […] Blood glucose was measured from tail nicks using AccuCheck (Aviva) meters.
Insulin Tolerance Test (ITT), Glucagon Challenge (GC) and Amylin Challenge (AC). For hormone challenges animals were fasted individually housed as described above. For ITT the fasting period was 6 h (7 am to 1 pm), and for glucagon and amylin challenges the fasting period was 14 h (8 pm-10 am). Inhibitor or vehicle alone was injected i.p. as previously described, 30 min prior to each hormone challenge. […] Glucagon (Eli Lilly) was injected s.c. 100 μg/kg formulated in 0.5% BSA sterile saline (5 mL/kg). Amylin (Bachem) was injected s.c. 250 μg/kg formulated in sterile saline (5 mL/kg). Blood glucose was measured at timepoints −45, 0, 15, 30, 45, 60 and 75 min with reference to the time of hormone injection, by microsampling from a tail nick as described above. Values are reported as mean±S.E.M. Statistics were performed using a two-tail Student's t-test, and significance levels shown in the figures are *p<0.05 versus vehicle control group or **p<0.01 versus vehicle control group.
as §1

IDE = IDE (Homo sapiens, UniProt P14735); test: Protease assay with fluorogenic peptide substrate Mca-[…](Dnp)-OH (IDE species not given); type: biochemical; parameters: The proteases IDE42-1019, recombinant human IDE42-1019 (R&D Systems); details: IDE
Sequence of IDE (P14735 42-1019): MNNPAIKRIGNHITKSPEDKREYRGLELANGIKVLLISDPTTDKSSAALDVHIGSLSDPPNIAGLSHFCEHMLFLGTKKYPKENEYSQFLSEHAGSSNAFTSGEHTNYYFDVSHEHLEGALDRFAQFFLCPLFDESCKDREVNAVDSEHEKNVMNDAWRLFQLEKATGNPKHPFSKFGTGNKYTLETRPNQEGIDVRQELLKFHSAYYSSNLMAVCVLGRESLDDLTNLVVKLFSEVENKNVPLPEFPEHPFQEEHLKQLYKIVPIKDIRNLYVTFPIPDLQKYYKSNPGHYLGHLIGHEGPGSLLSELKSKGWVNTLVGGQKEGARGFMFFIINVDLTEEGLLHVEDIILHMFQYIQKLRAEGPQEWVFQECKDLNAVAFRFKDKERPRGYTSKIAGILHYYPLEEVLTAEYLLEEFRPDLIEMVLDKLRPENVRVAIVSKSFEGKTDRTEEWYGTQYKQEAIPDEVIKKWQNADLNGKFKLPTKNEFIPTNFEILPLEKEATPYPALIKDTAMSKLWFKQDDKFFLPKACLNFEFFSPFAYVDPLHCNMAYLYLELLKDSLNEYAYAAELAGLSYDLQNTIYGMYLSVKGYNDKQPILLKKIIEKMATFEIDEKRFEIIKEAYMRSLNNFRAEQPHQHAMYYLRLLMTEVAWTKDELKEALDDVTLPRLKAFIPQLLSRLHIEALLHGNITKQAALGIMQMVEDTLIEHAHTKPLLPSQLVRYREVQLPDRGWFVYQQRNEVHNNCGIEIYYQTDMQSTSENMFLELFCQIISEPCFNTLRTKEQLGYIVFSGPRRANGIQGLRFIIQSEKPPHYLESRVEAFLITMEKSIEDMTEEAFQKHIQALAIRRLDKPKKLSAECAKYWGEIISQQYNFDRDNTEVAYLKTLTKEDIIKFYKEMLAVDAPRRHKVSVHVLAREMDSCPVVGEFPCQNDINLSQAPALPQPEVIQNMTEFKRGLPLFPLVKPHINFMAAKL
Description: All data points and error bars represent mean±SEM. Significance tests were performed using two-tail Student's t-test, and significance levels shown in the figures are p<0.05 (*) or p<0.01 (**) versus the vehicle-only control group. The in vitro selection of the DNA-templated macrocycle libraryl^16,17 used 20 μg His6-tagged mouse IDE immobilized on cobalt magnetic beads (Dynabeads, Invitrogen). IDE proteolytic activity was assayed with fluorogenic peptide Mca-[…](Dnp)-OH (R&D). IDE inhibition was confirmed using an anti-insulin antibody time-resolved FRET assay (Cysbio), and using an LCMS assay for CGRP cleavage fragments CGRP1-17 and CGRP18-37 in plasma^18. […] Protease assays with fluorogenic peptide substrates. […] (R&D). All assay data points were obtained in duplicate.

[1] = Liver microsome stability (1 h incubation); type: in vitro ADME; details: after 1 h
[2] = biological target: T1, endogenous IDE in mouse plasma (Mus musculus, UniProt Q9JHR7, L174F/R633G/V509I/Y332H); test: LC-MS assay for ex vivo degradation of CGRP in mouse plasma; type: biochemical; details: CGRP 10 μM
T1 construct: endogenous IDE in mouse plasma; from tissue; host or cells: mouse plasma
T1 sequence (Q9JHR7 whole entry L174F/Y332H/V509I/R633G): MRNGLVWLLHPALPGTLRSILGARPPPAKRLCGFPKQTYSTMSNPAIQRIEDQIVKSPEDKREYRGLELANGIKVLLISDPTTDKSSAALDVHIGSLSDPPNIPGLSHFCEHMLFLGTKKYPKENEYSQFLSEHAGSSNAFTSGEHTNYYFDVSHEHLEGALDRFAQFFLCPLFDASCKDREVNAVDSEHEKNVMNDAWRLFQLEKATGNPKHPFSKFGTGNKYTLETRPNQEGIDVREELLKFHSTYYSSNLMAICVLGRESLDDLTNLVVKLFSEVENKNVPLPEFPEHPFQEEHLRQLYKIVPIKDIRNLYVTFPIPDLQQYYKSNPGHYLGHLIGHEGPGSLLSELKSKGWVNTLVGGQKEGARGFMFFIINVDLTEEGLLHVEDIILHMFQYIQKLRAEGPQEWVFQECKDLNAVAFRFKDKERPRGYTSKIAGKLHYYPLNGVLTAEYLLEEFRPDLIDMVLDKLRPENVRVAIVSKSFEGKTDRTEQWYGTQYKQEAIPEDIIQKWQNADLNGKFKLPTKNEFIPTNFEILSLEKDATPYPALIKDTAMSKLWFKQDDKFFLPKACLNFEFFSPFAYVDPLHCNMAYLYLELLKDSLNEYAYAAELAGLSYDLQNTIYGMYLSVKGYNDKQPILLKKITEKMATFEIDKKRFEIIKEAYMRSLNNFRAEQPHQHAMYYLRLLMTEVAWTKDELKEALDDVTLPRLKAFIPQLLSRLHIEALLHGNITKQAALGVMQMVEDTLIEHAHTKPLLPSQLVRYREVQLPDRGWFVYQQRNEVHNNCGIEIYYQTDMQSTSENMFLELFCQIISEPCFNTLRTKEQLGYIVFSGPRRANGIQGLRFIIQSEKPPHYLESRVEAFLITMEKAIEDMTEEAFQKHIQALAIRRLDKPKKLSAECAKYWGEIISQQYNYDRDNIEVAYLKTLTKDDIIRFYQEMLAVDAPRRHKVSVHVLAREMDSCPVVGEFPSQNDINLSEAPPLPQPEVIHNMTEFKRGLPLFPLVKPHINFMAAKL
Description: All data points and error bars represent mean±SEM. Significance tests were performed using two-tail Student's t-test, and significance levels shown in the figures are p<0.05 (*) or p<0.01 (**) versus the vehicle-only control group. The in vitro selection of the DNA-templated macrocycle libraryl^16,17 used 20 μg His6-tagged mouse IDE immobilized on cobalt magnetic beads (Dynabeads, Invitrogen). IDE proteolytic activity was assayed with fluorogenic peptide Mca-[…](Dnp)-OH (R&D). IDE inhibition was confirmed using an anti-insulin antibody time-resolved FRET assay (Cysbio), and using an LCMS assay for CGRP cleavage fragments CGRP1-17 and CGRP18-37 in plasma^18. […] IDE degradation assays for insulin and calcitonin-gene related peptide (CGRP). […] Fluorescence was measured using a Tecan Safire 2 plate reader (excitation=320 nm, emission=665 and 620 nm, lag time=60 μs) according the assay manufacturer's recommendations. Degradation of CGRP by endogenous IDE in mouse plasma was analyzed by LC-MS for the formation of CGRP1-17 and CGRP18-37 as previously reported^6.

[3] = DIO liver, 135 min post-IPGTT, vs vehicle
[4] = DIO mice, 20 minutes post-glucose injection, vs vehicle

| SMILES | higher glucose-6-phosphatease (G6Pase) transcript levels (DIO mice; [3]) | lower phosphoenolpyruvate carboxykinase (PEPCK) transcript levels (DIO mice; [3]) | liver G6Pase expression (DIO mice; DIO mice post-IPGTT, vs control) | plasma amylin levels (DIO mice; [4]) | plasma glucagon levels (DIO mice; [4]) | plasma insulin levels (DIO mice; [4]) | plasma glucagon levels (DIO mice; DIO mice, 130 min post-injection, hyperglycemic rebound) | adverse observations after high-dose insulin (C57BL/6J mice; 80 mg/kg i.p. plus insulin 1.0 U/kg, sacrificed at 75 min) | plasma level of the hormone injected at the end of the procedure (C57BL/6J mice; insulin, amylin or glucagon challenge, lean mice, vs control) | blood glucose response to amylin challenge (C57BL/6J mice; lean mice, 80 mg/kg, amylin s.c. 250 μg/kg, vs vehicle) | blood glucose response to glucagon challenge (C57BL/6J mice; lean mice, 80 mg/kg, glucagon s.c. 100 μg/kg, vs vehicle) | blood glucose response in insulin tolerance test (C57BL/6J mice; mice, 6bK 80 mg/kg i.p. 30 min before s.c. insulin, vs vehicle) | insulin levels in insulin tolerance test (C57BL/6J mice; mice, 6bK 80 mg/kg, vs vehicle controls, p<0.01) | hypoglycemic response to a high dose of insulin (C57BL/6J mice; non-fasted male C57BL/6J mice, 80 mg/kg i.p., i.p. insulin 1.0 U/kg) | IC50 (IDE) | remaining after incubation with liver microsome preparations [1] | inhibition of IDE proteolytic activity, calcitonin-gene related peptide LC-MS assay [2] |
| --- | --- | --- | --- | --- | --- | --- | --- | --- | --- | --- | --- | --- | --- | --- | --- | --- | --- |
| NCCCC[C@@H]1NC(=O)/C=C/C(=O)N[C@H](C(N)=O)CCCCNC(=O)[C@@H](Cc2ccc(C(=O)c3ccccc3)cc2)NC(=O)[C@H](CC2CCCCC2)NC1=O [Compound 6bK] | 50% | 30% | elevated | elevated | unchanged | elevated | above 200 pg/mL | lethargy and hypothermia | remained elevated | hyperglycemia | hyperglycemia | lower hypoglycemia | higher | Increased hypoglycemic response | 50 nM | 78% |  |
| NC(=O)CCC1NC(=O)C=CC(=O)NC(C(N)=O)CCCCNC(=O)C(Cc2ccc(C(=O)c3ccccc3)cc2)NC(=O)C(CC2CCCCC2)NC1=O (centres unmarked) [Compound 6b] |  |  |  |  |  |  |  |  |  |  |  |  |  |  |  |  | confirmed |
